Laboratory results as given in US20230265107A1, “PB2 INHIBITOR, AND PREPARATION METHOD THEREFOR AND USE THEREOF” (priority 2020, published 2023).

Tested on: virus IFV A/PR/8/34
Assay: Cytopathic effect (CPE) method, antiviral activity against influenza virus in MDCK cells, CCK-8 cell viability
Assay type: cell-based
Conditions: PR/8, MDCK, 120 h, read-out: EC50 (IFV A/PR/8/34) nM

Row | SMILES | EC50 [nM]
1 | O=C(O)[C@H]1[C@H]2CC[C@H](CC2)[C@@H]1Nc1nc(-c2c[nH]c3ncc(F)cc23)nn2cc(C3CC3)cc12 [Example 8, (1R,2S,3S,4R)-3-((6-cyclopropyl-2-(5-fluoro-1H-pyrrolo[2,3-b]pyridin-3-yl)pyrrolo[2,1-f][1,2,4]triazin-4-yl)amino)bicyclo[2.2.2]octane-2-carboxylic acid] | 0.8
2 | O=C(O)[C@H]1[C@H]2CC[C@H](CC2)[C@@H]1Nc1nc(-c2c[nH]c3ncc(F)cc23)nn2c(C(F)(F)F)ccc12 [Example 18, (1R,2S,3S,4R)-3-((2-(5-fluoro-1H-pyrrolo[2,3-b]pyridin-3-yl)-7-(trifluoromethyl)pyrrolo[2,1-f][1,2,4]triazin-4-yl)amino)bicyclo[2.2.2]octane-2-carboxylic acid] | 0.3
3 | COCc1ccc2c(N[C@@H]3[C@@H](C(=O)O)[C@H]4CC[C@@H]3C3CC34)nc(-c3c[nH]c4ncc(F)cc34)nn12 (stereo partly drawn) [Example 20, (1R,5S,6S,7S)-7-((2-(5-fluoro-1H-pyrrolo[2,3-b]pyridin-3-yl)-7-(methoxymethyl)pyrrolo[2,1-f][1,2,4]triazin-4-yl)amino)tricyclo[3.2.2.0^2,4]nonane-6-carboxylic acid] | 0.3
4 | O=C(O)[C@@H]1[C@@H](Nc2nc(-c3c[nH]c4ncc(F)cc34)nn3c(C(F)(F)F)ccc23)[C@@H]2CC[C@H]1C1CC12 (stereo partly drawn) [Example 30, (1R,5S,6S,7S)-7-((2-(5-fluoro-1H-pyrrolo[2,3-b]pyridin-3-yl)-7-(trifluoromethyl)pyrrolo[2,1-f][1,2,4]triazin-4-yl)amino)tricyclo[3.2.2.0^2′4]nonane-6-carboxylic acid] | 0.37
5 | O=C(O)[C@@H]1[C@@H](Nc2nc(-c3n[nH]c4ncc(F)cc34)nn3c(C(F)(F)F)ccc23)[C@@H]2CC[C@H]1C1CC12 (stereo partly drawn) [Example 31, (1R,5S,6S,7S)-7-((2-(5-fluoro-1H-pyrazolo[3,4-b]pyridin-3-yl)-7-(trifluoromethyl)pyrrolo[2,1-f][1,2,4]triazin-4-yl)amino)tricyclo[3.2.2.0^2,4]nonane-6-carboxylic acid] | 0.08
6 | COCc1ccc2c(N[C@@H]3[C@@H](C(=O)O)[C@H]4CC[C@@H]3C3CC34)nc(-c3n[nH]c4ncc(F)cc34)nn12 (stereo partly drawn) [Example 32, (1R,5S,6S,7S)-7-((2-(5-fluoro-1H-pyrazolo[3,4-b]pyridin-3-yl)-7-(methoxymethyl)pyrrolo[2,1-f][1,2,4]triazin-4-yl)amino)tricyclo[3.2.2.0^2,4]nonane-6-carboxylic acid] | 0.24
7 | O=C(O)[C@@H]1[C@@H](Nc2nc(-c3n[nH]c4ncc(F)cc34)nn3c(C4CC4)ccc23)[C@@H]2CC[C@H]1C1CC12 (stereo partly drawn) [Example 38, (1R,5S,6S,7S)-7-((7-cyclopropyl-2-(5-fluoro-1H-pyrazolo[3,4-b]pyridin-3-yl)pyrrolo[2,1-f][1,2,4]triazin-4-yl)amino)tricyclo[3.2.2.0^2,4]nonane-6-carboxylic acid] | 0.09
